Test results from the NIST ThermoML archive (doi:10.1021/je800110r).
± gives the expanded uncertainty stated by the source.

Conditions: Liquid, Vibrating tube method

## CCCCCCCCCC [decane]
313.15 K, 25586 kPa
  mass density: 734.5 ± 2.1 kg/m3
313.15 K, 25902 kPa
  mass density: 734.7 ± 2.1 kg/m3
313.15 K, 25935 kPa
  mass density: 734.7 ± 2.1 kg/m3
313.15 K, 25969 kPa
  mass density: 734.6 ± 2.1 kg/m3
313.15 K, 25993 kPa
  mass density: 734.9 ± 2.1 kg/m3
313.15 K, 26027 kPa
  mass density: 734.7 ± 2.1 kg/m3
313.15 K, 26065 kPa
  mass density: 734.7 ± 2.1 kg/m3
313.15 K, 26104 kPa
  mass density: 734.9 ± 2.1 kg/m3
313.15 K, 26144 kPa
  mass density: 735 ± 2.1 kg/m3
313.15 K, 26173 kPa
  mass density: 734.9 ± 2.1 kg/m3
313.15 K, 26208 kPa
  mass density: 734.9 ± 2.1 kg/m3
313.15 K, 26233 kPa
  mass density: 734.9 ± 2.1 kg/m3
313.15 K, 26272 kPa
  mass density: 735 ± 2.1 kg/m3
313.15 K, 26306 kPa
  mass density: 735 ± 2.1 kg/m3
313.15 K, 26341 kPa
  mass density: 735 ± 2.1 kg/m3
313.15 K, 26370 kPa
  mass density: 735.1 ± 2.1 kg/m3
313.15 K, 26410 kPa
  mass density: 735 ± 2.1 kg/m3
313.15 K, 26440 kPa
  mass density: 735.2 ± 2.1 kg/m3
313.15 K, 26475 kPa
  mass density: 735.2 ± 2.1 kg/m3
313.15 K, 26510 kPa
  mass density: 735.1 ± 2.1 kg/m3
313.15 K, 26557 kPa
  mass density: 735.1 ± 2.1 kg/m3
313.15 K, 26582 kPa
  mass density: 735.1 ± 2.1 kg/m3
313.15 K, 26614 kPa
  mass density: 735.3 ± 2.1 kg/m3
313.15 K, 26655 kPa
  mass density: 735.3 ± 2.1 kg/m3
313.15 K, 26690 kPa
  mass density: 735.2 ± 2.1 kg/m3
313.15 K, 26722 kPa
  mass density: 735.3 ± 2.1 kg/m3
313.15 K, 26763 kPa
  mass density: 735.3 ± 2.1 kg/m3
313.15 K, 26799 kPa
  mass density: 735.4 ± 2.1 kg/m3
313.15 K, 26842 kPa
  mass density: 735.3 ± 2.1 kg/m3
313.15 K, 26874 kPa
  mass density: 735.3 ± 2.1 kg/m3
313.15 K, 26911 kPa
  mass density: 735.5 ± 2.1 kg/m3
313.15 K, 26941 kPa
  mass density: 735.5 ± 2.1 kg/m3
313.15 K, 26969 kPa
  mass density: 735.5 ± 2.1 kg/m3
313.15 K, 26998 kPa
  mass density: 735.6 ± 2.1 kg/m3
313.15 K, 27035 kPa
  mass density: 735.4 ± 2.1 kg/m3
313.15 K, 27058 kPa
  mass density: 735.5 ± 2.1 kg/m3
313.15 K, 27874 kPa
  mass density: 736 ± 2.1 kg/m3
313.15 K, 27972 kPa
  mass density: 736 ± 2.1 kg/m3
313.15 K, 28011 kPa
  mass density: 736.2 ± 2.1 kg/m3
313.15 K, 28036 kPa
  mass density: 736 ± 2.1 kg/m3
313.15 K, 28071 kPa
  mass density: 736.1 ± 2.1 kg/m3
313.15 K, 28101 kPa
  mass density: 736.2 ± 2.1 kg/m3
313.15 K, 28131 kPa
  mass density: 736.2 ± 2.1 kg/m3
313.15 K, 28162 kPa
  mass density: 736.3 ± 2.1 kg/m3
313.15 K, 28202 kPa
  mass density: 736.3 ± 2.1 kg/m3
313.15 K, 28237 kPa
  mass density: 736.3 ± 2.1 kg/m3
313.15 K, 28272 kPa
  mass density: 736.3 ± 2.1 kg/m3
313.15 K, 28297 kPa
  mass density: 736.3 ± 2.1 kg/m3
313.15 K, 28327 kPa
  mass density: 736.3 ± 2.1 kg/m3
313.15 K, 28372 kPa
  mass density: 736.4 ± 2.1 kg/m3
313.15 K, 28403 kPa
  mass density: 736.4 ± 2.1 kg/m3
313.15 K, 28449 kPa
  mass density: 736.5 ± 2.1 kg/m3
313.15 K, 28480 kPa
  mass density: 736.5 ± 2.1 kg/m3
313.15 K, 28515 kPa
  mass density: 736.4 ± 2.1 kg/m3
313.15 K, 28542 kPa
  mass density: 736.5 ± 2.1 kg/m3
313.15 K, 28578 kPa
  mass density: 736.5 ± 2.1 kg/m3
313.15 K, 28619 kPa
  mass density: 736.5 ± 2.1 kg/m3
313.15 K, 28645 kPa
  mass density: 736.5 ± 2.1 kg/m3
313.15 K, 28692 kPa
  mass density: 736.6 ± 2.1 kg/m3
313.15 K, 28723 kPa
  mass density: 736.7 ± 2.1 kg/m3
313.15 K, 28750 kPa
  mass density: 736.7 ± 2.1 kg/m3
313.15 K, 28791 kPa
  mass density: 736.7 ± 2.1 kg/m3
313.15 K, 28828 kPa
  mass density: 736.6 ± 2.1 kg/m3
313.15 K, 28860 kPa
  mass density: 736.8 ± 2.1 kg/m3
313.15 K, 28902 kPa
  mass density: 736.7 ± 2.1 kg/m3
313.15 K, 28945 kPa
  mass density: 736.8 ± 2.1 kg/m3
313.15 K, 28971 kPa
  mass density: 736.8 ± 2.1 kg/m3
313.15 K, 29019 kPa
  mass density: 736.8 ± 2.1 kg/m3
313.15 K, 29061 kPa
  mass density: 736.9 ± 2.1 kg/m3
313.15 K, 29168 kPa
  mass density: 737 ± 2.1 kg/m3
313.15 K, 30647 kPa
  mass density: 737.9 ± 2.1 kg/m3
313.15 K, 30676 kPa
  mass density: 738 ± 2.1 kg/m3
313.15 K, 30710 kPa
  mass density: 737.9 ± 2.1 kg/m3
313.15 K, 30738 kPa
  mass density: 738 ± 2.1 kg/m3
313.15 K, 30777 kPa
  mass density: 738 ± 2.1 kg/m3
313.15 K, 30816 kPa
  mass density: 738.1 ± 2.1 kg/m3
313.15 K, 30856 kPa
  mass density: 738.1 ± 2.1 kg/m3
313.15 K, 30889 kPa
  mass density: 738.1 ± 2.1 kg/m3
313.15 K, 30929 kPa
  mass density: 738 ± 2.1 kg/m3
313.15 K, 30974 kPa
  mass density: 738.1 ± 2.1 kg/m3
313.15 K, 31089 kPa
  mass density: 738.2 ± 2.1 kg/m3
313.15 K, 31432 kPa
  mass density: 738.4 ± 2.1 kg/m3
313.15 K, 31467 kPa
  mass density: 738.4 ± 2.1 kg/m3
313.15 K, 31515 kPa
  mass density: 738.4 ± 2.1 kg/m3
313.15 K, 31562 kPa
  mass density: 738.5 ± 2.1 kg/m3
313.15 K, 31610 kPa
  mass density: 738.4 ± 2.1 kg/m3
313.15 K, 31646 kPa
  mass density: 738.6 ± 2.1 kg/m3
313.15 K, 31694 kPa
  mass density: 738.6 ± 2.1 kg/m3
313.15 K, 31736 kPa
  mass density: 738.6 ± 2.1 kg/m3
313.15 K, 31766 kPa
  mass density: 738.4 ± 2.1 kg/m3
313.15 K, 31815 kPa
  mass density: 738.6 ± 2.1 kg/m3
313.15 K, 31856 kPa
  mass density: 738.6 ± 2.1 kg/m3
313.15 K, 31901 kPa
  mass density: 738.7 ± 2.1 kg/m3
313.15 K, 31947 kPa
  mass density: 738.7 ± 2.1 kg/m3
313.15 K, 31981 kPa
  mass density: 738.7 ± 2.1 kg/m3
313.15 K, 32023 kPa
  mass density: 738.8 ± 2.1 kg/m3
313.15 K, 32070 kPa
  mass density: 738.8 ± 2.1 kg/m3
313.15 K, 32100 kPa
  mass density: 738.9 ± 2.1 kg/m3
313.15 K, 32135 kPa
  mass density: 738.9 ± 2.1 kg/m3
313.15 K, 32176 kPa
  mass density: 738.9 ± 2.1 kg/m3
313.15 K, 32213 kPa
  mass density: 738.9 ± 2.1 kg/m3
313.15 K, 32253 kPa
  mass density: 738.9 ± 2.1 kg/m3
313.15 K, 32294 kPa
  mass density: 738.9 ± 2.1 kg/m3
313.15 K, 32345 kPa
  mass density: 739 ± 2.1 kg/m3
313.15 K, 32379 kPa
  mass density: 739 ± 2.1 kg/m3
313.15 K, 32413 kPa
  mass density: 739 ± 2.1 kg/m3
313.15 K, 32459 kPa
  mass density: 739.1 ± 2.1 kg/m3
313.15 K, 32491 kPa
  mass density: 739.1 ± 2.1 kg/m3
313.15 K, 32528 kPa
  mass density: 739.1 ± 2.1 kg/m3
313.15 K, 32561 kPa
  mass density: 739.1 ± 2.1 kg/m3
313.15 K, 32592 kPa
  mass density: 739.3 ± 2.1 kg/m3
313.15 K, 32633 kPa
  mass density: 739.1 ± 2.1 kg/m3
313.15 K, 32666 kPa
  mass density: 739.2 ± 2.1 kg/m3
313.15 K, 32704 kPa
  mass density: 739.3 ± 2.1 kg/m3
313.15 K, 32737 kPa
  mass density: 739.3 ± 2.1 kg/m3
313.15 K, 32770 kPa
  mass density: 739.3 ± 2.1 kg/m3
313.16 K, 339 kPa
  mass density: 714.8 ± 2 kg/m3
313.16 K, 365 kPa
  mass density: 714.9 ± 2 kg/m3
313.16 K, 391 kPa
  mass density: 715 ± 2 kg/m3
313.16 K, 423 kPa
  mass density: 715 ± 2 kg/m3
313.16 K, 450 kPa
  mass density: 714.9 ± 2 kg/m3
313.16 K, 478 kPa
  mass density: 715 ± 2 kg/m3
313.16 K, 508 kPa
  mass density: 715 ± 2 kg/m3
313.16 K, 548 kPa
  mass density: 715.1 ± 2 kg/m3
313.16 K, 579 kPa
  mass density: 715.1 ± 2 kg/m3
313.16 K, 595 kPa
  mass density: 715.2 ± 2 kg/m3
313.16 K, 607 kPa
  mass density: 715.1 ± 2 kg/m3
313.16 K, 620 kPa
  mass density: 715 ± 2 kg/m3
313.16 K, 631 kPa
  mass density: 715.1 ± 2 kg/m3
313.16 K, 651 kPa
  mass density: 715.2 ± 2 kg/m3
313.16 K, 661 kPa
  mass density: 715.1 ± 2 kg/m3
313.16 K, 673 kPa
  mass density: 715.3 ± 2 kg/m3
313.16 K, 686 kPa
  mass density: 715.2 ± 2 kg/m3
313.16 K, 699 kPa
  mass density: 715.2 ± 2 kg/m3
313.16 K, 719 kPa
  mass density: 715.2 ± 2 kg/m3
313.16 K, 733 kPa
  mass density: 715.2 ± 2 kg/m3
